{"source": "patent US20150164858A1", "about": "“COMBINATION COMPRISING PARTHENOLIDE FOR USE IN THE TREATMENT OF ALZHEIMER'S DISEASE AND OTHER NEURODEGENERATIVE DISORDERS” (King Abdullah University of Science and Technology, priority 2012, published 2015)", "origin": "cited, not measured here", "key": {"patients with AD": {"test_system": "patients with AD", "details": "moderate to severe AD"}, "TLR4": {"target": "TLR4 (Homo sapiens, UniProt O00206)", "sequence (O00206 24-839)": "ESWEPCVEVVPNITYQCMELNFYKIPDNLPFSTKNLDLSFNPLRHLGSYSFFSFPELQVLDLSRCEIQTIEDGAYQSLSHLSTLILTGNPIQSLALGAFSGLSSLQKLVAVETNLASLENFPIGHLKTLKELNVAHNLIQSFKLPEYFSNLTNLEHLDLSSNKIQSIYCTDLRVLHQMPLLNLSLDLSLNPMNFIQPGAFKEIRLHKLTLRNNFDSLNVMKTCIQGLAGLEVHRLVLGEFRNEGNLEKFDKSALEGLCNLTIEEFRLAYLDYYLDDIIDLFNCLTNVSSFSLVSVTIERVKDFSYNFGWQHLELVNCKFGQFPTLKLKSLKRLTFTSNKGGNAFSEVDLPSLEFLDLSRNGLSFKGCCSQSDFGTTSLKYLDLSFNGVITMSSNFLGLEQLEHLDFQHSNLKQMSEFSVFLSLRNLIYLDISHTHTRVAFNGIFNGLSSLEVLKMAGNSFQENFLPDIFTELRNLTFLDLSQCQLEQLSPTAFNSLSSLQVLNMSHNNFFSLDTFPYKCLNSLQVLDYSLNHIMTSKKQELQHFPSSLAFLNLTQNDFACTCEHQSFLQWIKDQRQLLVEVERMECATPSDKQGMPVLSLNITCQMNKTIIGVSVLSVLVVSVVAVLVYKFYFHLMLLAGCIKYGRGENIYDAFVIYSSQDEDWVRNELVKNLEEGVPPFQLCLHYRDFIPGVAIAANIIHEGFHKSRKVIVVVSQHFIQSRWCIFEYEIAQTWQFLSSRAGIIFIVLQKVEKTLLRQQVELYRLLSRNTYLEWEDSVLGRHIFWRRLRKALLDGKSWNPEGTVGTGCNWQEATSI"}, "[1]": {"test_system": "HEK293 cells stably expressing TLR4/MD-2/CD14"}}}
{"smiles": "CC12CC3CC(C)(C1)CC(N)(C3)C2", "note": "[Memantine]", "values": [{"measurement": "cognitive function", "setting": "patients with AD", "value": "improve cognitive function"}]}
{"smiles": "CCOC(=O)C1=CCCC[C@H]1S(=O)(=O)Nc1ccc(F)cc1Cl", "note": "[Resatorvid]", "values": [{"measurement": "TLR4 signaling", "setting": "TLR4", "value": "suppress TLR4 signaling"}, {"measurement": "binding site in TLR4", "setting": "TLR4; intracellular domain of TLR4", "value": "binding directly to a specific amino acid Cys747"}, {"measurement": "TIRAP-mediated activation of NF-κB", "setting": "[1]", "value": "inhibit"}, {"measurement": "TRAM-mediated activation of NF-κB and interferon-sensitive response element", "setting": "[1]", "value": "inhibit"}]}
